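Tested at 5 concentrations; 48 h exposure; 96-well plates; endpoints linearly interpolated, else capped at highest concentration. GI50 marks 50% less growth. TGI: total growth inhibition.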
What was measured:
Assay in all cases: NCI-60 cell line screen, 48 h
UO-31 renal = tested on: UO-31 renal
IGROV1 ovarian = tested on: IGROV1 ovarian
SF-295 CNS = tested on: SF-295 CNS
LOX IMVI melanoma = tested on: LOX IMVI melanoma
EKVX NSCLC = tested on: EKVX NSCLC
SK-MEL-2 melanoma = tested on: SK-MEL-2 melanoma
MCF7 breast = tested on: MCF7 breast
HT29 colon = tested on: HT29 colon
ACHN renal = tested on: ACHN renal
OVCAR-5 ovarian = tested on: OVCAR-5 ovarian
SK-OV-3 ovarian = tested on: SK-OV-3 ovarian
U251 CNS = tested on: U251 CNS
M14 melanoma = tested on: M14 melanoma
KM12 colon = tested on: KM12 colon
UACC-257 melanoma = tested on: UACC-257 melanoma
NCI/ADR-RES ovarian = tested on: NCI/ADR-RES ovarian
786-0 renal = tested on: 786-0 renal
SNB-75 CNS = tested on: SNB-75 CNS
NCI-H23 lung = tested on: NCI-H23 lung
OVCAR-3 ovarian = tested on: OVCAR-3 ovarian
HCC-2998 colon = tested on: HCC-2998 colon
NCI-H460 lung = tested on: NCI-H460 lung
OVCAR-4 ovarian = tested on: OVCAR-4 ovarian
TK-10 renal = tested on: TK-10 renal
MALME-3M melanoma = tested on: MALME-3M melanoma
NCI-H226 lung = tested on: NCI-H226 lung
COLO 205 colon = tested on: COLO 205 colon
UACC-62 melanoma = tested on: UACC-62 melanoma
SW-620 colon = tested on: SW-620 colon
CCRF-CEM leukemia = tested on: CCRF-CEM leukemia
OVCAR-8 ovarian = tested on: OVCAR-8 ovarian
DU-145 prostate = tested on: DU-145 prostate
SNB-19 CNS = tested on: SNB-19 CNS
T-47D breast = tested on: T-47D breast
BT-549 breast = tested on: BT-549 breast
SK-MEL-28 melanoma = tested on: SK-MEL-28 melanoma
HCT-116 colon = tested on: HCT-116 colon
MDA-MB-231 breast = tested on: MDA-MB-231 breast
SK-MEL-5 melanoma = tested on: SK-MEL-5 melanoma
A549 NSCLC = tested on: A549 NSCLC
HOP-92 NSCLC = tested on: HOP-92 NSCLC
SN12C renal = tested on: SN12C renal
SF-539 CNS = tested on: SF-539 CNS
RXF 393 renal = tested on: RXF 393 renal
SF-268 CNS = tested on: SF-268 CNS
A498 renal = tested on: A498 renal
NCI-H522 lung = tested on: NCI-H522 lung

Cc1cc(C(=C2C=CC(=Nc3ccccc3)C=C2)c2ccc(Nc3ccccc3)cc2)ccc1N gave a GI50 (UO-31 renal) of 305 nM, a TGI (UO-31 renal) of 1380 nM and a GI50 (IGROV1 ovarian) of 389 nM. The TGI (IGROV1 ovarian) was 1340 nM, the GI50 (SF-295 CNS) was 385 nM and the TGI (SF-295 CNS) was 1350 nM. It also gave a GI50 (LOX IMVI melanoma) of 169 nM, a TGI (LOX IMVI melanoma) of 310 nM and a GI50 (EKVX NSCLC) of 334 nM. For the same compound, the TGI (EKVX NSCLC) was 1260 nM, the GI50 (SK-MEL-2 melanoma) was 216 nM and the TGI (SK-MEL-2 melanoma) was 529 nM. It also gave a GI50 (MCF7 breast) of 346 nM, a TGI (MCF7 breast) of 1370 nM and a GI50 (HT29 colon) of 164 nM. For the same compound, the TGI (HT29 colon) was 302 nM, the GI50 (ACHN renal) was 377 nM and the TGI (ACHN renal) was 1310 nM. It also gave a GI50 (OVCAR-5 ovarian) of 245 nM, a TGI (OVCAR-5 ovarian) of 671 nM and a GI50 (SK-OV-3 ovarian) of 1520 nM. For the same compound, the TGI (SK-OV-3 ovarian) was 2900 nM, the GI50 (U251 CNS) was 185 nM and the TGI (U251 CNS) was 390 nM. The GI50 (M14 melanoma) was 286 nM, the TGI (M14 melanoma) was 1040 nM and the GI50 (KM12 colon) was 312 nM. It also gave a TGI (KM12 colon) of 1050 nM, a GI50 (UACC-257 melanoma) of 286 nM and a TGI (UACC-257 melanoma) of 1040 nM. It also gave a GI50 (NCI/ADR-RES ovarian) of 643 nM, a TGI (NCI/ADR-RES ovarian) of 2220 nM and a GI50 (786-0 renal) of 259 nM. It also gave a TGI (786-0 renal) of 709 nM, a GI50 (SNB-75 CNS) of 598 nM and a TGI (SNB-75 CNS) of 2220 nM. It also gave a GI50 (NCI-H23 lung) of 382 nM, a TGI (NCI-H23 lung) of 1690 nM and a GI50 (OVCAR-3 ovarian) of 293 nM. It also gave a TGI (OVCAR-3 ovarian) of 876 nM, a GI50 (HCC-2998 colon) of 211 nM and a TGI (HCC-2998 colon) of 452 nM. It also gave a GI50 (NCI-H460 lung) of 223 nM, a TGI (NCI-H460 lung) of 532 nM and a GI50 (OVCAR-4 ovarian) of 355 nM. For the same compound, the TGI (OVCAR-4 ovarian) was 1310 nM, the GI50 (TK-10 renal) was 359 nM and the TGI (TK-10 renal) was 1110 nM. It also gave a GI50 (MALME-3M melanoma) of 250 nM, a TGI (MALME-3M melanoma) of 777 nM and a GI50 (NCI-H226 lung) of 446 nM. The TGI (NCI-H226 lung) was 1720 nM, the GI50 (COLO 205 colon) was 201 nM and the TGI (COLO 205 colon) was 407 nM. The GI50 (UACC-62 melanoma) was 250 nM, the TGI (UACC-62 melanoma) was 796 nM and the GI50 (SW-620 colon) was 290 nM. The TGI (SW-620 colon) was 1050 nM, the GI50 (CCRF-CEM leukemia) was 352 nM and the TGI (CCRF-CEM leukemia) was > 100 µM. For the same compound, the GI50 (OVCAR-8 ovarian) was 254 nM, the TGI (OVCAR-8 ovarian) was 913 nM and the GI50 (DU-145 prostate) was 507 nM. The TGI (DU-145 prostate) was 1580 nM, the GI50 (SNB-19 CNS) was 397 nM and the TGI (SNB-19 CNS) was 1560 nM. For the same compound, the GI50 (T-47D breast) was 527 nM, the TGI (T-47D breast) was 1930 nM and the GI50 (BT-549 breast) was 1060 nM. For the same compound, the TGI (BT-549 breast) was 2260 nM, the GI50 (SK-MEL-28 melanoma) was 368 nM and the TGI (SK-MEL-28 melanoma) was 1400 nM. The GI50 (HCT-116 colon) was 287 nM, the TGI (HCT-116 colon) was 1020 nM and the GI50 (MDA-MB-231 breast) was 363 nM. For the same compound, the TGI (MDA-MB-231 breast) was 1340 nM, the GI50 (SK-MEL-5 melanoma) was 253 nM and the TGI (SK-MEL-5 melanoma) was 718 nM. It also gave a GI50 (A549 NSCLC) of 599 nM, a TGI (A549 NSCLC) of 1690 nM and a GI50 (HOP-92 NSCLC) of 475 nM. The TGI (HOP-92 NSCLC) was 1730 nM, the GI50 (SN12C renal) was 310 nM and the TGI (SN12C renal) was 1480 nM. For the same compound, the GI50 (SF-539 CNS) was 328 nM, the TGI (SF-539 CNS) was 1160 nM and the GI50 (RXF 393 renal) was 344 nM. The TGI (RXF 393 renal) was 1280 nM, the GI50 (SF-268 CNS) was 651 nM and the TGI (SF-268 CNS) was 1830 nM. The GI50 (A498 renal) was 543 nM, the TGI (A498 renal) was 1860 nM and the GI50 (NCI-H522 lung) was 203 nM. The TGI (NCI-H522 lung) was 602 nM.

— PubChem BioAssay (NCI)
